From ChEMBL document CHEMBL1123279, “Beta 1-selective adrenoceptor antagonists: examples of the 2-[4-[3-(substituted amino)-2-hydroxypropoxy]phenyl]imidazole class. 2” (J Med Chem, 1986)
Calls of active or inactive are those of the source. No cut-off for these calls is given here.

What was measured:
[1] = Partition coefficient (logD7.4); format: physicochemical; conditions: octanol/water, pH 7.4
[2] = Dissociation constant (pKa); format: physicochemical
Rattus norvegicus [3] = experiment: Intrinsic sympathomimetic activity (ISA) measured as max. increase in heart rate over 60 min in reserpinized normotensive anesthetized rats at 1000 ug/kg iv; format: functional; set-up: unit not given here
Rattus norvegicus [4] = experiment: Effective dose was evaluated following intravenous administration in reserpinized normotensive anesthetized rats; format: functional
Rattus norvegicus [5] = experiment: Intrinsic sympathomimetic activity (ISA) in the reserpinized normotensive anesthetized rats following intravenous administration at 1000 ug/kg; format: functional
[6] = target: Beta-2 adrenergic receptor (Cavia porcellus) (UniProt Q8K4Z4)
Beta-2 adrenergic receptor (Cavia porcellus), sequence (Q8K4Z4 whole entry, looked up): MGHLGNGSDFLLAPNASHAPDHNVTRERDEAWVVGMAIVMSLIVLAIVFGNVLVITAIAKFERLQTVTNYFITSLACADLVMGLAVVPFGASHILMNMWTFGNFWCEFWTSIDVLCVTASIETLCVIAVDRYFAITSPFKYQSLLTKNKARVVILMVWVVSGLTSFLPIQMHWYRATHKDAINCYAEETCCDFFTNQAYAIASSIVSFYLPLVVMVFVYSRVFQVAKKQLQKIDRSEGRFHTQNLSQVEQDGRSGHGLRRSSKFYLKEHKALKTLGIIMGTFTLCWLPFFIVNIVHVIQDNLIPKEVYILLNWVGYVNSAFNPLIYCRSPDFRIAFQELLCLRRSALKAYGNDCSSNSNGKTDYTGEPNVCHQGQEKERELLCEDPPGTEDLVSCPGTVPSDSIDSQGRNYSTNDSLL

Rattus norvegicus [7] = experiment: Intrinsic sympathomimetic activity (ISA) measured as max increase in heart rate over 60 min in the reserpinized normotensive anesthetized rats at 1000 ug/kg iv; format: functional
[8] = target: Beta-1 adrenergic receptor (Cavia porcellus, UniProt B0FL73); experiment: In vitro inhibitory activity against beta-1 adrenergic receptor was measured by the inhibition of the positive chronotropic effect of isoproterenolin in isolated guinea pig atria.; conditions: read-out: pA2 (converted)
Beta-1 adrenergic receptor, sequence (B0FL73 whole entry): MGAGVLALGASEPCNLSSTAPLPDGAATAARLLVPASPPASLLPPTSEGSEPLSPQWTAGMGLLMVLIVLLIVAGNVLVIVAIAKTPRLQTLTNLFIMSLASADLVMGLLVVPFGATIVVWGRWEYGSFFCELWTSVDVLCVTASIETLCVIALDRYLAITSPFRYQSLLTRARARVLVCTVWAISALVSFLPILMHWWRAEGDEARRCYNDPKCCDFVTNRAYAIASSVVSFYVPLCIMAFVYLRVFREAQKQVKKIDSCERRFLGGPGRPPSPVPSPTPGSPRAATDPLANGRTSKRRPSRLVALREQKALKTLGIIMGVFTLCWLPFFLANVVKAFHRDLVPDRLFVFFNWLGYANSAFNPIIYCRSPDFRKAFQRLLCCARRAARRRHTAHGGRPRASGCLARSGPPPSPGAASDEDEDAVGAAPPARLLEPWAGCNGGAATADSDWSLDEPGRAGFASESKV

Row | logD [1] | pKa [2] | Structure (SMILES) | Max increase (Rattus norvegicus [3]) | other results
1 | 0.312 | 5.25 | CCOCc1c[nH]c(-c2ccc(OCC(O)CNCCc3ccc(OC)c(OC)c3)cc2)n1 (stereo not drawn) | 27 | –
2 | – | – | COc1ccc(CCNCC(O)COc2ccc(-c3nc(-c4cccs4)c[nH]3)cc2)cc1OC (stereo not drawn) | – | ED50 (Rattus norvegicus [4]): 0.0479 mg/kg
3 | 1.6 | 8.4 | COc1ccc(CCNCC(O)COc2ccc(-c3ncco3)cc2)cc1OC (stereo not drawn) | 19 | –
4 | 2.09 | 6.2 | COc1ccc(CCNCC(O)COc2ccc(-c3nc(C(C)(C)C)c[nH]3)cc2)cc1OC (stereo not drawn) | 48 | –
5 | 2.31 | 3.3 | COc1ccc(CCNCC(O)COc2ccc(-c3nc(Br)c[nH]3)cc2Cl)cc1OC (stereo not drawn) | 48 | –
6 | 1.86 | 4.6 | CCOCCNC[C@H](O)COc1ccc(-c2nc(-c3cccs3)c[nH]2)cc1 | – | ED50 (Rattus norvegicus [4]): 0.0784 mg/kg
7 | 0.952 | 6.32 | CC(C)NCC(O)COc1ccc(-c2nc(C(C)C)c[nH]2)cc1 (stereo not drawn) | – | –
8 | 1.98 | 5.8 | COc1ccc(CCNCC(O)COc2ccc(-c3nc(Br)c(C)[nH]3)cc2)cc1OC (stereo not drawn) | – | Max increase (Rattus norvegicus [5]): 23
9 | 0.699 | 3.6 | CCCCNC(=O)NCCNCC(O)COc1ccc(-c2nc(C)c[nH]2)cc1 (stereo not drawn) | – | –
10 | 0.505 | – | COc1ccc(CCNCC(O)COc2ccc(-c3nccs3)cc2)cc1OC (stereo not drawn) | 70 | –
11 | 0.633 | 5.5 | COc1ccc(CCNCC(O)COc2ccc(COCc3ncc[nH]3)cc2)cc1OC (stereo not drawn) | 2 | –
12 | 1.6 | 5.7 | COc1ccc(CCNCC(O)COc2ccc(-c3nc(C)c[nH]3)cc2Br)cc1OC (stereo not drawn) | – | –
13 | -0.638 | 6.93 | Cc1c[nH]c(Cc2ccc(OCC(O)CNC(C)(C)C)cc2)n1 (stereo not drawn) | – | –
14 | – | – | N#Cc1ccccc1OCC(O)CNCCNC(=O)Nc1ccccc1.O (stereo not drawn) | – | ED50 (Rattus norvegicus [4]): 0.0029 mg/kg
15 | -0.569 | 5.65 | CC(C)NCC(O)COc1ccc(-c2ncc[nH]2)cc1 (stereo not drawn) | 53 | –
16 | 0.215 | 3.54 | COc1ccc(CCNCC(O)COc2ccc(-c3nc(CN4CCOCC4)c[nH]3)cc2)cc1OC (stereo not drawn) | 30 | –
17 | 1.18 | 4.9 | CC(C)NCC(O)COc1ccc(-c2nc(-c3cccs3)c[nH]2)cc1 (stereo not drawn) | – | –
18 | 1.53 | 5.45 | COc1ccc(CCNCC(O)COc2ccc(CCc3nc(-c4cccs4)c[nH]3)cc2)cc1OC (stereo not drawn) | 0 | –
19 | 0 | 5.55 | COc1ccc(CCNCC(O)COc2ccc(-c3nc(CO)c[nH]3)cc2)cc1OC (stereo not drawn) | – | –
20 | 1.24 | 3.65 | COc1ccc(CCNCC(O)COc2ccc(-c3nc(Br)c[nH]3)cc2)cc1OC (stereo not drawn) | – | ED50 (Rattus norvegicus [4]): 0.0064 mg/kg
21 | 1.41 | 4.79 | CCCNCC(O)COc1ccc(-c2nc(-c3cccs3)c[nH]2)cc1 (stereo not drawn) | – | –
22 | 0.778 | 5.75 | O=C(NCCNCC(O)COc1ccc(-c2ncc[nH]2)cc1)Nc1ccccc1 (stereo not drawn) | – | –
23 | 1.28 | 4 | COc1ccc(CCNCC(O)COc2ccc(-c3nc(C(C)=O)c(C)[nH]3)cc2)cc1OC (stereo not drawn) | 24 | –
24 | 0.881 | 6.7 | COc1ccc(CCNCC(O)COc2ccc(-c3nccn3C)cc2)cc1OC.Cl.Cl (stereo not drawn) | 47 | –

Row | logD [1] | pKa [2] | Structure (SMILES) | Max increase (Rattus norvegicus [3]) | other results
25 | 0.799 | 5.64 | COCc1c[nH]c(-c2ccc(OCC(O)CNCCc3ccc(OC)c(OC)c3)cc2)n1 (stereo not drawn) | 38 | pA2 [6]: Active
26 | 0.301 | 7.01 | COc1ccc(CCNCC(O)COc2ccc(Cc3nc(C)c[nH]3)cc2)cc1OC (stereo not drawn) | 0 | –
27 | – | – | COc1ccc(CCNC[C@H](O)COc2ccc(-c3nc(-c4cccs4)c[nH]3)cc2)cc1OC.Cl.Cl | 19 | –
28 | 2.2 | 6.42 | COc1ccc(CCNC[C@H](O)COc2ccc(-c3nc(C(C)(C)C)c[nH]3)cc2)cc1OC | – | Max increase (Rattus norvegicus [7]): 21
29 | 2.34 | 4.02 | COc1ccc(CCNCC(O)COc2ccc(-c3nc(-c4cccs4)c[nH]3)cc2Cl)cc1OC (stereo not drawn) | 19 | –
30 | 0.968 | 6.35 | COc1ccc(CCNCC(O)COc2ccc(-c3nc(C)c[nH]3)cc2OC)cc1OC (stereo not drawn) | – | –
31 | 0.204 | 3.75 | CC(C)NCC(O)COc1ccc(Cc2nc(Br)c[nH]2)cc1 (stereo not drawn) | 7 | Kb [8]: 3.16 nM
32 | 1.02 | 6.72 | COc1ccc(CCNCC(O)COc2ccc(-c3nc(C)c(C)[nH]3)cc2)cc1OC (stereo not drawn) | 19 | –
33 | 0.694 | 3.6 | COc1ccc(CCNC[C@H](O)COc2ccc(-c3nc(C(C)=O)c[nH]3)cc2)cc1OC | – | ED50 (Rattus norvegicus [4]): 0.0074 mg/kg
34 | 1.9 | 3.8 | OC(CNCCc1ccncc1)COc1ccc(-c2nc(-c3cccs3)c[nH]2)cc1 (stereo not drawn) | – | ED50 (Rattus norvegicus [4]): 0.0654 mg/kg
35 | 2.76 | 4.55 | COc1ccc(CCNCC(O)COc2ccc(-c3nc(-c4cccs4)c[nH]3)cc2C)cc1OC (stereo not drawn) | 21 | –
36 | 0.279 | 3.6 | COc1ccc(CCNCC(O)COc2ccc(-c3nc(C(N)=O)c[nH]3)cc2)cc1OC (stereo not drawn) | 47 | –
37 | 1 | 3.65 | COc1ccc(CCNCC(O)COc2ccc(CCc3nc(Br)c[nH]3)cc2)cc1OC (stereo not drawn) | – | –
38 | 1.32 | 5.9 | COCCc1c[nH]c(-c2ccc(OCC(O)CNCCc3ccc(OC)c(OC)c3)cc2)n1 (stereo not drawn) | 75 | –
39 | 1.88 | 3.62 | COc1ccc(CCNCC(O)COc2ccc(-c3nc(C)c(Cl)[nH]3)cc2)cc1OC (stereo not drawn) | – | Max increase (Rattus norvegicus [5]): 19
40 | 1.61 | 3.48 | COc1ccc(CCNCC(O)COc2ccc(-c3nc(Cl)c[nH]3)cc2)cc1OC (stereo not drawn) | 42 | –
41 | 1.58 | 4.99 | COc1ccc(CCNCC(O)COc2ccc(Cc3nc(-c4cccs4)c[nH]3)cc2)cc1OC (stereo not drawn) | 3 | –
42 | 0.301 | 3.95 | COc1ccc(CCNC[C@H](O)COc2ccc(Cc3nc(C(C)=O)c[nH]3)cc2)cc1OC | 0 | –
43 | 0.839 | 4.92 | COCc1[nH]c(-c2ccc(OCC(O)CNCCc3ccc(OC)c(OC)c3)cc2)nc1C (stereo not drawn) | – | –
44 | 0.663 | 5.2 | COc1ccc(CCNCC(O)COc2ccc(OCc3ncc[nH]3)cc2)cc1OC (stereo not drawn) | – | –
45 | 1.41 | 3.8 | CCOC(=O)c1c[nH]c(-c2ccc(OCC(O)CNCCc3ccc(OC)c(OC)c3)cc2)n1 (stereo not drawn) | 60 | –
46 | 1.78 | 4.5 | CCOCCNCC(O)COc1ccc(-c2nc(-c3cccs3)c[nH]2)cc1 (stereo not drawn) | – | –
47 | 1.79 | 6.78 | COc1ccc(CCNCC(O)COc2ccc(-c3nc(C(C)C)c[nH]3)cc2)cc1OC (stereo not drawn) | 24 | –
